{"source": "patent US20210323918A1", "about": "“COMPOSITIONS AND METHODS FOR SUPPRESSING AND/OR TREATING A GROWTH RELATED DISEASE AND/OR A CLINICAL CONDITION THEREOF” (CK Biotech Inc., priority 2018, published 2021)", "tested_on": "ATDC5 cells", "assay": "Wnt/β-catenin signaling, proliferation and differentiation in ATDC5 chondrogenic cells", "assay_type": "cell-based, mouse", "excerpt": "Cell culture and reagents. The mouse chondrogenic cell line, ATDC5, was obtained from the RIKEN Cell Batik. The human juvenile costal chondrocyte cell line, C28/I2, was provided by Dr. W. U. Kim (Catholic University, Korea). HEK293-TOP cells (HEK293 cells containing the chromosomally incorporated TOPFlash gene) were provided by Dr. S. Oh (Kuk Min University, Korea). ATDCS cells were maintained in DMEM/F12 (1:1) (Gibco, Grand Island, N.Y.) supplemented with 5% FBS (Gibco). To induce hypertrophic differentiation, ATDC5 cells were incubated with insulin-transferrin-sodium selenite (ITS) supplement (Gibco) in three-dimensional alginate beads for 3 days, as previously described. See e.g., Kawasaki Y. et al. (2008), Phosphorylation of GSK-3beta by cGMP-dependent protein kinase II promotes hypertrophic differentiation of murine chondrocytes. J CLIN INVEST 118: 2506-2515. C28/I2 and HEK293-TOP cells were maintained in DMEM (Gibco) containing 10% FBS. All chemicals were dissolved in dimethyl sulfoxide (DMSO; Sigma-Aldrich, St Louis, Mo.) for the in vitro studies. For E2 (17β-estradiol; Sigma-Aldrich) treatment, cells were cultured in phenol red-free DMEM/F12 with 5% charcoal-stripped FBS for 24 hours followed by serum-free medium for 24 hours before the experiment. The PTD-DBMP was synthesized by Peptide 2.0 Inc (Chantilly, Va.).\nImmunocytochemistry. ATDCS or C28/I2 cells were seeded on glass coverslip in 12-well culture plates. The cells were washed with PBS and fixed with 4% PFA at room temperature for 15 minutes. After permeabilization with 0.1% triton-X-100 for 15 minutes and blocking with 5% BSA for 1 hour, the cells were incubated with primary antibodies specific for β-catenin (1:100) or CXXC5 l (1:200) at 4° C. overnight. The cells were washed in PBS and incubated with Alexa Fluor 488 or Alexa Fluor 555 secondary antibodies (1:200) at room temperature for 1 hour. Cell nuclei were counterstained with DAPI for 10 minutes and the stained samples were examined under a LSM700 META microscope using 405-, 488-, or 543-nm excitation wavelengths. For BrdU assay, cultured cells were incubated with BrdU solution (25 μM) overnight, followed by immunocytochemical staining with antibody against BrdU (1:100).\nImmunoblot analyses. […] Protein samples were separated on a 8-12% sodium dodecylsulfate polyacrylamide gel electrophoresis (SDS-PAGE) and transferred to a nitrocellulose membrane (Whatman). Immunoblotting was performed with the following primary antibodies: anti-β-catenin (Santa Cruz Biotechnology, Santa Cruz, Calif., sc-7199; 1:3,000), anti-CXXC5 (lab made;1:200) anti-Myc tag (MBL, Aichi, Japan, M192-3; 1:1,000), anti-FLAG (Sigma-Aldrich, F7425; 1:1,000), anti-p-GSK3β (S9; Cell Signaling Technology, Danvers, Mass., 9336S; 1:1,000), anti-COL2A1 (Santa Cruz Biotechnology, sc-28887; 1:500), anti-RUNX2 (Abcam, ab23981; 1:500), anti-COLIOAI (Cosmo Bio, LSL-LB-0092; 1:500), anti-MMP13 (Santa Cruz Biotechnology, sc-30073; 1:500), anti-ERK (Santa Cruz Biotechnology, sc-94; 1:3,000) and anti-α-tubulin (Cell Signaling Technology, 3873S; 1:20,000). Samples were then incubated with horseradish-peroxidase-conjugated anti-mouse (Cell Signaling Technology, 7076; 1:3,000), anti-rabbit (Bio-Rad, 1706515; 1:3,000), or anti-goat (Santa Cruz Biotechnology; sc-2020; 1:3,000) secondary antibodies. Protein bands were visualized with enhanced chemiluminescence (ECL; Amersham Bioscience, Piscataway, N.J.) using a luminescent image analyzer, LAS-3000 (Fujifilm, Tokyo, Japan). Immunoblot bands were analyzed using Multi-Gauge V3.0 software (Fujifilm). Points of interest (POIs) from immunoblot bands were marked and quantified using densitometry, and the background signals were subtracted from respective immunoblot signals. Relative densitometry values were presented as the intensity ratios of each protein to loading control protein (α-tubulin or ERK).\nImmunoprecipitation. Immunoprecipitation was performed as previously described (Kim et al, 2015). […]", "key": {"[1]": {"details": "ATDC5 cells, 0.01 or 0.1 μM, 4 hours, FIG. 12"}}, "data": [{"smiles": "CO/N=C1/C(=C2/C(=O)Nc3cc(Cl)c(Cl)cc32)Nc2ccccc21", "note": "[KY19382, 5,6-dichloroindirubin-3′-methoxime]", "values": [{"measurement": "number of BrdU-positive ATDC5 cells", "setting": "0.01 or 0.1 μM, 48 hours, FIG. 11A", "result": "enhanced number"}, {"measurement": "CXXC5-DVL interaction, immunoprecipitation", "setting": "ATDC5 cells, 0.1 μM, 4 hours, FIG. 4F", "result": "interruption of the CXXC5-DVL interaction"}, {"measurement": "nuclear translocation of β-catenin", "setting": "ATDC5 cells, 0.1 μM, 48 hours, FIG. 4G", "result": "elevated"}, {"measurement": "mRNA levels of chondrogenic markers", "setting": "ATDC5 cells, 0.1 μM, 3 days, alginate beads, FIG. 11B", "result": "upregulated"}, {"measurement": "expression levels of Wnt/β-catenin target genes (Fosl1, Wisp1, Axin2)", "setting": "[1]", "result": "markedly increased"}, {"measurement": "off-target effects: 19 other genes that respond to other pathways, mRNA", "setting": "[1]", "result": "not significantly altered"}, {"measurement": "β-catenin level with inactivation of GSK3β, immunoblot", "setting": "ATDC5 cells, 24 hours, FIG. 4E", "result": "increment of β-catenin"}]}]}
